From paper PMC7394005, “Assessing the Selectivity of FXR, LXRs, CAR, and RORγ Pharmaceutical Ligands With Reporter Cell Lines” (Frontiers in Pharmacology, 2020)
Read-outs that look alike come from different tables or passages of the source.

Tests used:
Assay type in all cases: cell-based
human CAR (+ APYLT) = molecular target: T1, human CAR (+ APYLT) (Homo sapiens, UniProt Q14994, INS270APYLT); test: HG5LN GAL4-CAR (+APYLT) reporter cell line, agonist mode; conditions: for EC50: HG5LN CAR + APYLT cells, tested alone, NE = No effect
T1 construct: CAR (M76-S348); expressed in transfected cells; host or cells: HG5LN (HeLa cells carrying the (GAL4RE)5-βGlob-Luc-SVNeo reporter)
T1 sequence (Q14994 47-324 isoform Q14994-6): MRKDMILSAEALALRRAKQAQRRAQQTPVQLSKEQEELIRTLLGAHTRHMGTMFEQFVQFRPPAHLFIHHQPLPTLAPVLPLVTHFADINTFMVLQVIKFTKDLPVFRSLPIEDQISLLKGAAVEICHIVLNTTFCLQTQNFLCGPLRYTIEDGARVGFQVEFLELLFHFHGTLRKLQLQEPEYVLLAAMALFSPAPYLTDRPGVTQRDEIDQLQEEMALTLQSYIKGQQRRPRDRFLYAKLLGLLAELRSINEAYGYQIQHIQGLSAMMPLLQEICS
Excerpt: (§1) To construct GAL4-NR chimeras, individual LBDs of human FXR (R193-Q486), LXRα (A187-E447), LXRβ (G199-E461), CAR (M76-S348), and RORγ (S97-K518) were amplified by PCR with primers containing XhoI and SacI restriction sites (FXR), XhoI and BamHI (LXRs, CAR, RORγ) and inserted in pSG5-GAL4(DBD)-puromycin plasmid. To construct GAL4-CAR (+ APYLT) (M76-S353), the five amino acids APYLT were inserted by overlap extension PCR between amino acids P270 and D271 of CAR.
(§2) To characterize the specificity of chemicals for human FXR, LXRα, LXRβ, CAR and RORγ, we established in a similar manner HG5LN FXR, LXRα, LXRβ, CAR WT, CAR (APYLT) and RORγ reporter cell lines. […] These cells were stably transfected by pSG5-GAL4 (DBD)-NRs (LBD)-puromycin plasmid and selected in presence of 0.5 µg/ml puromycin. […] From each HG5LN NR cells, 5 to 10 clones were chosen for their ligand inducibility of luciferase expression. […] The most inducible clones were expanded and rechecked for inducibility and aliquots were frozen at different passages. One clone per receptor was maintained in culture and used for ligand screening. HG5LN cells were cultured in Dulbecco’s modified Eagle’s medium (DMEM): Nutrient Mixture F-12 (DMEM/F-12) containing phenol red and 1 g/l glucose and supplemented with 5% fetal bovine serum, 100 units/ml of penicillin, 100 µg/ml of streptomycin and 1 mg/ml geneticin, in 5% CO2 humidified atmosphere at 37°C. Stably transfected cell lines derived from HG5LN cells were cultured in the same culture medium supplemented with 0.5 µg/ml puromycin.
(§3) Individual reporter cell lines were seeded at a density of 40,000 cells per well in 96-well white opaque tissue culture plates (Greiner CellStar) in Dulbecco’s Modified Eagle Medium: Nutrient Mixture F-12 (DMEM/F-12) without phenol red and 1 g/l glucose and supplemented with 5% stripped fetal bovine serum, 100 units/ml of penicillin, 100 µg/ml of streptomycin (test medium). Chemicals to be tested were added 24h later, and cells were incubated at 37°C for 16h. Experiments were performed in quadruplicates. At the end of the incubation period, culture medium was replaced with test medium containing 0.3 mM luciferin solution. Luciferase activity was measured for 2s in intact living cells after 10 min stabilization using a Micro Beta Wallac luminometer (PerkinElmer). EC50 values were calculated using GraphPad Prism (GraphPad Software Inc).
(§4) Chemicals tested for agonism on FXR, LXRs, CAR (+ APYLT), PXR, and antagonism on CAR and RORγ were tested alone, without addition of any other ligand.
(§5) In the transactivation assay, each compound was tested at various concentrations in three independent experiments at least. For each experiment, tests were performed in quadruplicates for each concentration, and data are expressed by means values with standard deviations. Individual agonist dose–response curves, in the absence and presence of antagonist, were fitted using the sigmoid dose-response function of a graphics and statistics software program (GraphPad Prism, version 5.0). EC50 (effective concentration for half-maximal luciferase activity) and IC50 (half-maximal inhibitory concentration) values were calculated from equations used to fit the data in this graphic software. Transactivation data are presented as EC50 and IC50 values for each compound tested. To analyze significances, we compared individual compound treatments with controls using one-way analysis of variance (ANOVA) with the help of GraphPad Prism software.

human CAR WT = molecular target: T2, human CAR WT (Homo sapiens, UniProt Q14994); test: HG5LN GAL4-CAR WT reporter cell line, inhibition of constitutive activity; conditions: for IC50: inhibition of constitutive activity; for remaining activity at 10 µM: HG5LN, read-out: CAR WT % min act
T2 construct: CAR (M76-S348); expressed in transfected cells; host or cells: HG5LN (HeLa cells carrying the (GAL4RE)5-βGlob-Luc-SVNeo reporter)
T2 sequence (Q14994 76-348 isoform Q14994-2): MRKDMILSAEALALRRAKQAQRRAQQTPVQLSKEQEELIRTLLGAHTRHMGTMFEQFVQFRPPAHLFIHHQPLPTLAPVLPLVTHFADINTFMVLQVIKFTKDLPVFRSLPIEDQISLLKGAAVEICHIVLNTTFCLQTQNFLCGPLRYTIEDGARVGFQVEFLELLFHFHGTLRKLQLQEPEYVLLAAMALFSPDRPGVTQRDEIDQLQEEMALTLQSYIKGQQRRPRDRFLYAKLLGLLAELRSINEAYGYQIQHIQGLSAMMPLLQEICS
Excerpt: as §1, §2, §3, §4, §5

human LXRα = molecular target: T3, human LXRα (Homo sapiens, UniProt Q13133); test: HG5LN GAL4-LXRα reporter cell line, antagonist mode in presence of T0901317; conditions: for LXRα (T0901317 20 nM) % min act: in presence of T0901317 20 nM (80% of maximal activity), at 10^-5 M (10^-6 M *, 3 10^-6 M **)
T3 construct: LXRα (A187-E447); expressed in transfected cells; host or cells: HG5LN (HeLa cells carrying the (GAL4RE)5-βGlob-Luc-SVNeo reporter)
T3 sequence (Q13133 187-447): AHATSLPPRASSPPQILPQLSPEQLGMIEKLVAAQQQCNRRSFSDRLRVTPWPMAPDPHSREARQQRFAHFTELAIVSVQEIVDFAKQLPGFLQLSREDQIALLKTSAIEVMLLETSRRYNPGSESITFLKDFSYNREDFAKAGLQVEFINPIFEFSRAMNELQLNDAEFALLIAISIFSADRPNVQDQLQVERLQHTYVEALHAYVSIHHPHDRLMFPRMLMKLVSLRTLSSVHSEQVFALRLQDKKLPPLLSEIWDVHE
Excerpt: as §1, §2, §3, §4, §5

human FXR = molecular target: T4, human FXR (Homo sapiens, UniProt Q96RI1); test: HG5LN GAL4-FXR reporter cell line, agonist mode (luciferase transactivation); conditions: NE = No effect; for EC50: HG5LN GAL4-FXR cells, tested alone
T4 construct: FXR (R193-Q486); expressed in transfected cells; host or cells: HG5LN (HeLa cells carrying the (GAL4RE)5-βGlob-Luc-SVNeo reporter)
T4 sequence (Q96RI1 193-486): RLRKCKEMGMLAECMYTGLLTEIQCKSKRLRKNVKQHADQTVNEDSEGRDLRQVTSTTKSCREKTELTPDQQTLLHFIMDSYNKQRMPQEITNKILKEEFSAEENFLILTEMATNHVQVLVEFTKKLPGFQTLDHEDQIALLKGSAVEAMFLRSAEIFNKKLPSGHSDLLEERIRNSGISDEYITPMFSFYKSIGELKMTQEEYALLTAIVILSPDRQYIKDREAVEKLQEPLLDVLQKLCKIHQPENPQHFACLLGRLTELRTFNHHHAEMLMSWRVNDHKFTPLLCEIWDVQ
Excerpt: as §1, §2, §3, §4, §5

[1] = tested alone, constitutive activity = 100%, at 10^-5 M (10^-6 M *, 3 10^-6 M **), NE = No effect
[2] = read-out: LXRα (T0901317 20 nM) IC50, in presence of T0901317 20 nM, NE = No effect

EC50 (human CAR (+ APYLT)) [µM] | IC50 (human CAR WT; tested alone, NE = No effect) [µM] | CAR WT % min act (human CAR WT; [1]) [%] | IC50 (human LXRα; [2]) [µM] | EC50 (human FXR) [µM] | Emax at 10 µM (human CAR (+ APYLT); HG5LN, read-out: CAR (APYLT) % max act) [%] | remaining activity at 10 µM (human CAR WT; [1]) [%] | FXR % max act (human FXR; maximal luciferase activity at 10^-5 M (10^-6 M for * and 3 10^-6 M for ** compounds), 100% = 1 µM GW4064, DMSO 6 ± 1) [%] | Compound | remaining activity at 10 µM (human CAR WT) [%] | LXRα (T0901317 20 nM) % min act (human LXRα; NE = No effect) [%] | IC50 (human LXRα) [µM]
> 10 | 0.251 ± 0.015 | 19 | > 10 | > 10 | – | – | – | CCOC(=O)Nc1ccc2c(c1)N(C(=O)CN(CC)CC)c1ccccc1CC2 [CINPA1] | – | – | –
– | – | – | > 10 | – | 23 | 64 | – | Clc1ccccc1C(c1ccccc1)(c1ccccc1)n1ccnc1 [Clotrimazole, clotrimazole] | – | – | –
> 10 | > 10 | – | > 10 | – | – | – | – | COc1cccc(Cn2cc(C(=O)Nc3ccc(C)c(S(=O)(=O)N4CCOCC4)c3)c(-c3ccc(C)cc3)n2)c1 [DY268] | – | – | –
> 10 | > 10 | – | > 10 | > 10 | – | – | – | CC(C)(C)c1nc(-c2cccc(NS(=O)(=O)c3c(F)cccc3F)c2F)c(-c2ccnc(N)n2)s1 [Dabrafenib] | – | – | –
> 10 | > 10 | – | > 10 | 0.612 ± 0.188 | – | – | 33 | COC(=O)/C=C/c1cccc(N(Cc2ccc(-c3ccc(N(C)C)cc3)cc2)C(=O)C2CCCCC2)c1 [Feraxamine] | – | – | –
> 10 | > 10 | – | – | – | – | – | – | O=C(O)Cc1cccc(OCCCN(Cc2cccc(C(F)(F)F)c2Cl)CC(c2ccccc2)c2ccccc2)c1 [GW3965] | – | – | –
> 10 | > 10 | – | > 10 | – | – | – | – | CC(C)c1onc(-c2c(Cl)cccc2Cl)c1COc1ccc(/C=C/c2cccc(C(=O)O)c2)c(Cl)c1 [GW4064] | – | – | –
> 10 | 1.06 ± 0.063 | 21 | > 10 | > 10 | – | – | – | Cc1oc2ccccc2c1CNC(=O)NCc1cccs1 [S07662] | – | – | –
> 10 | > 10 | – | > 10 | > 10 | – | – | – | CC(=O)Nc1nc(C)c(S(=O)(=O)Nc2ccc(C(O)(C(F)(F)F)C(F)(F)F)cc2)s1 [SR1001] | – | – | –
> 10 | 8.75 ± 3.69 | – | – | > 10 | – | 65 | – | Cc1cc(C)c(S(=O)(=O)N(CCc2cccc(Br)c2)Cc2ccc(-c3cccc(S(C)(=O)=O)c3)cc2)c(C)c1 [SR9243] | – | 2 | 0.56 ± 0.099
> 10 | > 10 | – | > 10 | > 10 | – | – | – | CCOP(=O)(OCC)C(=Cc1cc(C(C)(C)C)c(O)c(C(C)(C)C)c1)P(=O)(OCC)OCC [SR12813] | – | – | –
> 10 | > 10 | – | > 10 | > 10 | – | – | – | SPA70 | – | – | –

Compound | EC50 (human CAR (+ APYLT)) [µM] | IC50 (human CAR WT; tested alone, NE = No effect) [µM] | CAR WT % min act (human CAR WT; [1]) [%] | IC50 (human LXRα; [2]) [µM] | EC50 (human FXR) [µM] | Emax at 10 µM (human CAR (+ APYLT); HG5LN, read-out: CAR (APYLT) % max act) [%] | remaining activity at 10 µM (human CAR WT; [1]) [%] | FXR % max act (human FXR; maximal luciferase activity at 10^-5 M (10^-6 M for * and 3 10^-6 M for ** compounds), 100% = 1 µM GW4064, DMSO 6 ± 1) [%] | remaining activity at 10 µM (human CAR WT) [%] | LXRα (T0901317 20 nM) % min act (human LXRα; NE = No effect) [%] | IC50 (human LXRα) [µM]
Clc1ccc(-c2nc3sccn3c2/C=N/OCc2ccc(Cl)c(Cl)c2)cc1 [CITCO] | – | – | – | > 10 | > 10 | – | – | – | – | – | –
Cc1cc(C)c(S(=O)(=O)N(Cc2ccc(-c3cccc(S(C)(=O)=O)c3)cc2)Cc2ccc(C(F)(F)F)o2)c(C)c1 [GSK2033] | > 10 | 0.556 ± 0.024 | – | – | > 10 | – | – | – | 21 | 2 | –
O=C(Nc1ccc(C(O)(C(F)(F)F)C(F)(F)F)cc1)c1ccccc1Cl [SR0987] | > 10 | > 10 | – | > 10 | > 10 | – | – | – | – | – | –
O=C(Nc1ccc(C(O)(C(F)(F)F)C(F)(F)F)cc1)c1ccc(C(F)(F)F)cc1 [SR1078] | > 10 | > 10 | – | > 10 | > 10 | – | – | – | – | – | –
CCOC(=O)c1ccc(CN(Cc2ccc(-c3cccc(S(C)(=O)=O)c3)cc2)S(=O)(=O)c2c(C)cc(C)cc2C)o1 [SR9238] | > 10 | > 10 | – | – | > 10 | – | – | – | 77 | 2 | 0.026 ± 0.005
Fc1ccc(-c2c3cccc(C(F)(F)F)c3nn2Cc2ccc(F)cc2Cl)cc1 [WAY252623] | > 10 | > 10 | – | – | > 10 | – | – | – | – | – | –
